Test results taken from PubChem BioAssay AID1963860 (Molecular Pharmacology Branch, DTP, NCI, 2024).

Test system: CN0375-F725-PDC KRAS spheroid viability
Assay: Anticancer human tumor CN0375-F725-PDC patient-derived colon carcinoma cell line growth inhibition [KRAS2]
Details: spheroids with HUVEC and MSC; for IC50: curve of first compound; for viability, T/C: stronger effect = lower value
Summary of the method: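 Combination screen of spheroid viability in tumor-cell co-cultures with endothelial (HUVEC) and mesenchymal stem cell stroma. Each agent was tested in half-log dilutions, topping at clinical Cmax or at 10 microM without a known Cmax.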

[1] = second compound 0.0316 µM, first compound 0.0316 µM
[2] = second compound 0.0316 µM, first compound 0.1 µM
[3] = second compound 0.0316 µM, first compound 0.316 µM
[4] = second compound 0.0316 µM, first compound 1 µM
[5] = second compound 0.0316 µM, first compound 3.16 µM
[6] = second compound 0.1 µM, first compound 0.01 µM
[7] = second compound 0.1 µM, first compound 0.0316 µM
[8] = second compound 0.1 µM, first compound 0.1 µM
[9] = second compound 0.1 µM, first compound 0.316 µM
[10] = second compound 0.1 µM, first compound 1 µM
[11] = second compound 0.1 µM, first compound 3.16 µM
[12] = second compound 0.316 µM, first compound 0.01 µM
[13] = second compound 0.316 µM, first compound 0.0316 µM
[14] = second compound 0.316 µM, first compound 0.1 µM
[15] = second compound 0.316 µM, first compound 0.316 µM
[16] = second compound 0.316 µM, first compound 1 µM
[17] = second compound 0.316 µM, first compound 3.16 µM
[18] = second compound 1 µM, first compound 0.01 µM
[19] = second compound 1 µM, first compound 0.0316 µM
[20] = second compound 1 µM, first compound 0.1 µM
[21] = second compound 1 µM, first compound 0.316 µM
[22] = second compound 1 µM, first compound 1 µM
[23] = second compound 1 µM, first compound 3.16 µM
[24] = second compound 3.16 µM, first compound 0.01 µM
[25] = second compound 3.16 µM, first compound 0.0316 µM
[26] = second compound 3.16 µM, first compound 0.1 µM
[27] = second compound 3.16 µM, first compound 0.316 µM
[28] = second compound 3.16 µM, first compound 1 µM
[29] = second compound 3.16 µM, first compound 3.16 µM
[30] = second compound 0.0316 µM, first compound 10 µM
[31] = second compound 0.1 µM, first compound 10 µM
[32] = second compound 0.316 µM, first compound 10 µM
[33] = second compound 1 µM, first compound 10 µM
[34] = second compound 3.16 µM, first compound 10 µM
[35] = second compound 10 µM, first compound 0.01 µM
[36] = second compound 10 µM, first compound 0.0316 µM
[37] = second compound 10 µM, first compound 0.1 µM
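Note: spheroids exposed to agents for 7 days.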

SMILES: CC1COCCN1c1cc(-c2ccnn2C)c2ccnc(-c3ccn[nH]3)c2n1 (stereo not given) + C=CC(=O)N1CCN(c2nc(OCC3CCCN3C)nc3c2CCN(c2cccc4cccc(C)c24)C3)CC1CC#N
- IC50 (second compound 0.0316 µM): > 3.16 µM
- IC50 (second compound 0.1 µM): > 3.16 µM
- IC50 (second compound 0.316 µM): > 3.16 µM
- IC50 (second compound 1 µM): > 3.16 µM
- IC50 (second compound 3.16 µM): < 0.01 µM
- viability, T/C (second compound 0.0316 µM, first compound 0.01 µM): 109%
- viability, T/C [1]: 94.6%
- viability, T/C [2]: 84.8%
- viability, T/C [3]: 84.6%
- viability, T/C [4]: 68.4%
- viability, T/C [5]: 57.2%
- viability, T/C [6]: 99.8%
- viability, T/C [7]: 98.4%
- viability, T/C [8]: 81.4%
- viability, T/C [9]: 79.3%
- viability, T/C [10]: 65.7%
- viability, T/C [11]: 53.4%
- viability, T/C [12]: 98%
- viability, T/C [13]: 93.4%
- viability, T/C [14]: 84.6%
- viability, T/C [15]: 78.5%
- viability, T/C [16]: 65.2%
- viability, T/C [17]: 55.6%
- viability, T/C [18]: 88.1%
- viability, T/C [19]: 88.3%
- viability, T/C [20]: 75.1%
- viability, T/C [21]: 71%
- viability, T/C [22]: 66.5%
- viability, T/C [23]: 51%
- viability, T/C [24]: 36.8%
- viability, T/C [25]: 35.9%
- viability, T/C [26]: 24.4%
- viability, T/C [27]: 25%
- viability, T/C [28]: 17.5%
- viability, T/C [29]: 20.5%

SMILES: CC1OCC2(CCN(c3cnc(Sc4ccnc(N)c4Cl)c(N)n3)CC2)C1N (stereo not given) + C=CC(=O)N1CCN(c2nc(OCC3CCCN3C)nc3c2CCN(c2cccc4cccc(C)c24)C3)CC1CC#N
- IC50 (second compound 0.0316 µM): > 10 µM
- IC50 (second compound 0.1 µM): > 10 µM
- IC50 (second compound 0.316 µM): > 10 µM
- IC50 (second compound 1 µM): 8.24 µM
- IC50 (second compound 3.16 µM): < 0.0316 µM
- viability, T/C [1]: 99.2%
- viability, T/C [2]: 90.6%
- viability, T/C [3]: 77.1%
- viability, T/C [4]: 81.9%
- viability, T/C [5]: 79.7%
- viability, T/C [30]: 63.7%
- viability, T/C [7]: 102%
- viability, T/C [8]: 90.9%
- viability, T/C [9]: 77.7%
- viability, T/C [10]: 80%
- viability, T/C [11]: 74.4%
- viability, T/C [31]: 62.9%
- viability, T/C [13]: 102%
- viability, T/C [14]: 89.9%
- viability, T/C [15]: 81.8%
- viability, T/C [16]: 78.3%
- viability, T/C [17]: 71.4%
- viability, T/C [32]: 60.4%
- viability, T/C [19]: 83.2%
- viability, T/C [20]: 86%
- viability, T/C [21]: 73.5%
- viability, T/C [22]: 61.8%
- viability, T/C [23]: 64.2%
- viability, T/C [33]: 46.5%
- viability, T/C [25]: 30.2%
- viability, T/C [26]: 18.2%
- viability, T/C [27]: 14.2%
- viability, T/C [28]: 13%
- viability, T/C [29]: 13.2%
- viability, T/C [34]: 9.43%

SMILES: Cn1nccc1Nc1nccc(-c2cc3c(s2)C(C)(C)N(CCN2CCOCC2)C3=O)n1 + C=CC(=O)N1CCN(c2nc(OCC3CCCN3C)nc3c2CCN(c2cccc4cccc(C)c24)C3)CC1CC#N
- IC50 (second compound 0.0316 µM): 3.93 µM
- IC50 (second compound 0.1 µM): 2.98 µM
- IC50 (second compound 0.316 µM): 2.23 µM
- IC50 (second compound 1 µM): 0.739 µM
- IC50 (second compound 3.16 µM): < 0.0316 µM
- viability, T/C [1]: 100%
- viability, T/C [2]: 97.3%
- viability, T/C [3]: 76.9%
- viability, T/C [4]: 68.9%
- viability, T/C [5]: 52.7%
- viability, T/C [30]: 39%
- viability, T/C [7]: 95.7%
- viability, T/C [8]: 93.4%
- viability, T/C [9]: 77.2%
- viability, T/C [10]: 63.4%
- viability, T/C [11]: 50.4%
- viability, T/C [31]: 39.7%
- viability, T/C [13]: 91.5%
- viability, T/C [14]: 91.3%
- viability, T/C [15]: 70.3%
- viability, T/C [16]: 60.3%
- viability, T/C [17]: 46.9%
- viability, T/C [32]: 38%
- viability, T/C [19]: 87.6%
- viability, T/C [20]: 82.8%
- viability, T/C [21]: 52.4%
- viability, T/C [22]: 47%
- viability, T/C [23]: 39.1%
- viability, T/C [33]: 23.1%
- viability, T/C [25]: 27.7%
- viability, T/C [26]: 24.3%
- viability, T/C [27]: 11.9%
- viability, T/C [28]: 7.82%
- viability, T/C [29]: 5.81%
- viability, T/C [34]: 2.15%

SMILES: CC(=O)OC12COC1CC(O)C1(C)C(=O)C(O)C3=C(C)C(OC(=O)C(O)C(NC(=O)OC(C)(C)C)c4ccccc4)CC(O)(C(OC(=O)c4ccccc4)C21)C3(C)C (stereo not given) + CC1OCC2(CCN(c3cnc(Sc4ccnc(N)c4Cl)c(N)n3)CC2)C1N
- IC50 (second compound 0.1 µM): > 3.16 µM
- IC50 (second compound 0.316 µM): > 3.16 µM
- IC50 (second compound 1 µM): > 3.16 µM
- IC50 (second compound 3.16 µM): > 3.16 µM
- IC50 (second compound 10 µM): > 3.16 µM
- viability, T/C [6]: 93.5%
- viability, T/C [7]: 93.2%
- viability, T/C [8]: 83.8%
- viability, T/C [9]: 79.1%
- viability, T/C [10]: 79.6%
- viability, T/C [11]: 71.5%
- viability, T/C [12]: 91.5%
- viability, T/C [13]: 88.4%
- viability, T/C [14]: 79.4%
- viability, T/C [15]: 74.7%
- viability, T/C [16]: 71.8%
- viability, T/C [17]: 71.8%
- viability, T/C [18]: 95.6%
- viability, T/C [19]: 102%
- viability, T/C [20]: 87.5%
- viability, T/C [21]: 83.8%
- viability, T/C [22]: 80.7%
- viability, T/C [23]: 76.7%
- viability, T/C [24]: 77.6%
- viability, T/C [25]: 74.8%
- viability, T/C [26]: 68%
- viability, T/C [27]: 64%
- viability, T/C [28]: 64.5%
- viability, T/C [29]: 58.6%
- viability, T/C [35]: 73.9%
- viability, T/C [36]: 70.1%
- viability, T/C [37]: 67.2%
- viability, T/C (second compound 10 µM, first compound 0.316 µM): 59.8%
- viability, T/C (second compound 10 µM, first compound 1 µM): 57.2%
- viability, T/C (second compound 10 µM, first compound 3.16 µM): 53.2%

SMILES: CN(C)C/C=C/C(=O)Nc1cc2c(Nc3ccc(F)c(Cl)c3)ncnc2cc1O[C@H]1CCOC1 + CC1OCC2(CCN(c3cnc(Sc4ccnc(N)c4Cl)c(N)n3)CC2)C1N
- IC50 (second compound 0.1 µM): > 0.1 µM
- IC50 (second compound 0.316 µM): > 0.1 µM
- IC50 (second compound 1 µM): > 0.1 µM
- IC50 (second compound 3.16 µM): > 0.1 µM
- IC50 (second compound 10 µM): > 0.1 µM
- viability, T/C (second compound 0.1 µM, first compound 0.000316 µM): 95.9%
- viability, T/C (second compound 0.1 µM, first compound 0.001 µM): 87%
- viability, T/C (second compound 0.1 µM, first compound 0.00316 µM): 87.5%
- viability, T/C [6]: 85.9%
- viability, T/C [7]: 80.4%
- viability, T/C [8]: 80.4%
- viability, T/C (second compound 0.316 µM, first compound 0.000316 µM): 93.6%
- viability, T/C (second compound 0.316 µM, first compound 0.001 µM): 87.7%
- viability, T/C (second compound 0.316 µM, first compound 0.00316 µM): 84%
- viability, T/C [12]: 86.9%
- viability, T/C [13]: 83.2%
- viability, T/C [14]: 75.7%
- viability, T/C (second compound 1 µM, first compound 0.000316 µM): 94.8%
- viability, T/C (second compound 1 µM, first compound 0.001 µM): 97.5%
- viability, T/C (second compound 1 µM, first compound 0.00316 µM): 88.3%
- viability, T/C [18]: 85.5%
- viability, T/C [19]: 83.5%
- viability, T/C [20]: 77.7%
- viability, T/C (second compound 3.16 µM, first compound 0.000316 µM): 73.9%
- viability, T/C (second compound 3.16 µM, first compound 0.001 µM): 77.7%
- viability, T/C (second compound 3.16 µM, first compound 0.00316 µM): 73.7%
- viability, T/C [24]: 71%
- viability, T/C [25]: 71.6%
- viability, T/C [26]: 72.3%
- viability, T/C (second compound 10 µM, first compound 0.000316 µM): 90.3%
- viability, T/C (second compound 10 µM, first compound 0.001 µM): 96%
- viability, T/C (second compound 10 µM, first compound 0.00316 µM): 88%
- viability, T/C [35]: 84.6%
- viability, T/C [36]: 80.6%
- viability, T/C [37]: 82.8%
